Usually Kd stands for a measure of binding affinity in units of concentration.

Molecules are shown by their SMILES. Active and inactive are the calls of the source. For most assays here, no stated cut-off is given here; in the data, actives have a measured Kd and inactives only a lower limit.

The source of these data is ChEMBL document CHEMBL3991601, “The target landscape of clinical kinase drugs” (Science, 2017).

Experiment [1] addresses Adenosine kinase (Homo sapiens, UniProt P55263).
The target of experiment [2] is Cyclin-dependent kinase 17 (Homo sapiens, UniProt Q00537).
The target of experiment [3] is Mitogen-activated protein kinase kinase kinase kinase 4 (Homo sapiens, UniProt O95819).
Experiment [4] deals with 5'-AMP-activated protein kinase catalytic subunit alpha-1 (Homo sapiens, UniProt Q13131).
Experiment [5] concerns the target T1, Dynamin-like GTPase OPA1, mitochondrial (Homo sapiens, UniProt O60313).
T1 sequence (O60313 whole entry): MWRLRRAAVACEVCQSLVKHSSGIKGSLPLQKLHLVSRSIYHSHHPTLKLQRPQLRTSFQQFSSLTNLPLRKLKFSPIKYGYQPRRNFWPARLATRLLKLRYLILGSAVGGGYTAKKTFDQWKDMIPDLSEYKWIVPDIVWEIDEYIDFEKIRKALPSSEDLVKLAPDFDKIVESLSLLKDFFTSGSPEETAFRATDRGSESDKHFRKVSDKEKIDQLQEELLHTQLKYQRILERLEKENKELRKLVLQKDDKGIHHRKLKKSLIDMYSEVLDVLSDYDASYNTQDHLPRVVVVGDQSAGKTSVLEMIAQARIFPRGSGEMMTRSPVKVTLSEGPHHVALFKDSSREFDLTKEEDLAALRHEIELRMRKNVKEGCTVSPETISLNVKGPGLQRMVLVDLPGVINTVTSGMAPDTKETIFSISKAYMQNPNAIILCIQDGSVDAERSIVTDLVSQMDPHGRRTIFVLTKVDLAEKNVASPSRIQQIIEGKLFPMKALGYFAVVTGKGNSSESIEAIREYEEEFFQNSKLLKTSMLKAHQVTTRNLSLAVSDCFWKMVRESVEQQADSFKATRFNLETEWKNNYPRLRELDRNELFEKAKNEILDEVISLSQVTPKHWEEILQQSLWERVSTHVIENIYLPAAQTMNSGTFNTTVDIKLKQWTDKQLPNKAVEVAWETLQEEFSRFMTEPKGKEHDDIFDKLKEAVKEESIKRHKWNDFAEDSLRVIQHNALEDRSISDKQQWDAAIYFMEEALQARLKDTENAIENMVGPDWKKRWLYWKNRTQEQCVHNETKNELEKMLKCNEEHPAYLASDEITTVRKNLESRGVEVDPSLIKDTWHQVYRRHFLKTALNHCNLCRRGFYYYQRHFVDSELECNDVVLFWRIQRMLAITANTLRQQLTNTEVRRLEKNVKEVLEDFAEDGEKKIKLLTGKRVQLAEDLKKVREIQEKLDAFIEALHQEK

Experiment [6] deals with Maternal embryonic leucine zipper kinase (Homo sapiens, UniProt Q14680).
Experiment [7] deals with Proto-oncogene tyrosine-protein kinase Src (Homo sapiens, UniProt P12931).
Experiment [8] concerns the target Serine/threonine-protein kinase 26 (Homo sapiens, UniProt Q9P289).
Experiment [9] addresses Dual specificity protein kinase CLK1 (Homo sapiens, UniProt P49759).
Experiment [10] addresses Hepatocyte growth factor receptor (Homo sapiens, UniProt P08581).
The target in experiment [11] is STE20-like serine/threonine-protein kinase (Homo sapiens, UniProt Q9H2G2).
Experiment [12] deals with Ribosomal protein S6 kinase alpha-6 (Homo sapiens, UniProt Q9UK32).
Experiment [13] addresses Non-receptor tyrosine-protein kinase TYK2 (Homo sapiens, UniProt P29597).
In experiment [14] the target is T2, Scaffold protein ILK (Homo sapiens, UniProt Q13418).
T2 sequence (Q13418 whole entry): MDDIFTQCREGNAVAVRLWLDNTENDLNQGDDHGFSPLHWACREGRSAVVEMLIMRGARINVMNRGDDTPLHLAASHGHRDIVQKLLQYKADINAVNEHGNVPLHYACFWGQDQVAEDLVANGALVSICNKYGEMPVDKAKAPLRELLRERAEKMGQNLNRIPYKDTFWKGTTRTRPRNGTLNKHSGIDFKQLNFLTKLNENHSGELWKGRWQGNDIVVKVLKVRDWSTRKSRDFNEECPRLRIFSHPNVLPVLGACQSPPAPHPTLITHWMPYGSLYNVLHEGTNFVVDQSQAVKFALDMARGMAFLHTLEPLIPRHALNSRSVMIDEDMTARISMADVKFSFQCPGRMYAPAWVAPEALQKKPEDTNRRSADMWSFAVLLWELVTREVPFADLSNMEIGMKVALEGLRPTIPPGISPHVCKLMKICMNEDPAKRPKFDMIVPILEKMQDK

The target of experiment [15] is T3, Non-receptor tyrosine-protein kinase TNK1 (Homo sapiens, UniProt Q13470).
T3 sequence (Q13470 whole entry): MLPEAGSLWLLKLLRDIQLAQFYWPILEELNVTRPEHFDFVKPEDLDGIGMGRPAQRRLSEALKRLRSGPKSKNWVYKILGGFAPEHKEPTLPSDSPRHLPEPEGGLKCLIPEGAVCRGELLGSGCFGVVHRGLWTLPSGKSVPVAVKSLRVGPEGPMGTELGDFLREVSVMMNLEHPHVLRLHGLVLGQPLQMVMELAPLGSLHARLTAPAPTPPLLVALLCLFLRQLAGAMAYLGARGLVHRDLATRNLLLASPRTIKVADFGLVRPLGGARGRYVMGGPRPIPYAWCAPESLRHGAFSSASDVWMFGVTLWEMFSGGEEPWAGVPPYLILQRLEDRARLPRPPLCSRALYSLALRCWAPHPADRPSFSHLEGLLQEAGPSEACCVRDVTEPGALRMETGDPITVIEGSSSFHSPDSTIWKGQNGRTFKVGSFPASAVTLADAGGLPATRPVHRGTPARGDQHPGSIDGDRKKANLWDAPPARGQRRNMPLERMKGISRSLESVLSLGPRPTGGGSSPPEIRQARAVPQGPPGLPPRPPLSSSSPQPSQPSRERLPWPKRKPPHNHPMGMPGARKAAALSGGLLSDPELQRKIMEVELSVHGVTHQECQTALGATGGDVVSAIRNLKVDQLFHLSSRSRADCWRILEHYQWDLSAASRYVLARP

For experiment [16], the target named is Mitotic checkpoint serine/threonine-protein kinase BUB1 (Homo sapiens, UniProt O43683).
Experiment [17] deals with S-adenosylmethionine synthase isoform type-2 (Homo sapiens, UniProt P31153).
S-adenosylmethionine synthase isoform type-2, sequence (P31153 whole entry, canonical isoform): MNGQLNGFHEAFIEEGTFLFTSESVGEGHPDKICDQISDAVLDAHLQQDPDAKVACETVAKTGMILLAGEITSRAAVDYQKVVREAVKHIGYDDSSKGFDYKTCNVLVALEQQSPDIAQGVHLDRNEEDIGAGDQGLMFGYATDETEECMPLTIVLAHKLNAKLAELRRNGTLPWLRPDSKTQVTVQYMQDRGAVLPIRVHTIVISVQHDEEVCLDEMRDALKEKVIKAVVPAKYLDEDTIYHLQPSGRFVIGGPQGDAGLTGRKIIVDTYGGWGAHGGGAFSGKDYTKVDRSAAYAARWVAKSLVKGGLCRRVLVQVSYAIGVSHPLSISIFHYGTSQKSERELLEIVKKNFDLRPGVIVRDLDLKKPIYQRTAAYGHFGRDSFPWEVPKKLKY

Dual specificity protein kinase CLK1, sequence (P49759 whole entry): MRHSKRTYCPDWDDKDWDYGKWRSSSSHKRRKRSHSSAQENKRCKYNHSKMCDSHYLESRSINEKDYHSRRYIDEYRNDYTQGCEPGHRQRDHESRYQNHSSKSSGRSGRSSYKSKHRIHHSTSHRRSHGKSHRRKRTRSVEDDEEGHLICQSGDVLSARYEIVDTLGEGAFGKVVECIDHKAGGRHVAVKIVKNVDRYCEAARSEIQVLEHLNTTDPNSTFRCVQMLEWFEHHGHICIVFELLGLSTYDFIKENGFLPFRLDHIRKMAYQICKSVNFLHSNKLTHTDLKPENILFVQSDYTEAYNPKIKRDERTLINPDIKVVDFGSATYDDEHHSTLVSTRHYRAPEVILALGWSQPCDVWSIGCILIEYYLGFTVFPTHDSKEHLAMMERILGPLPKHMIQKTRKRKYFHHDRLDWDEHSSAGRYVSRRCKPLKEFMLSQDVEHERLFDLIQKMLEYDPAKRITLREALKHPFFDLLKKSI
Hepatocyte growth factor receptor, sequence (P08581 whole entry): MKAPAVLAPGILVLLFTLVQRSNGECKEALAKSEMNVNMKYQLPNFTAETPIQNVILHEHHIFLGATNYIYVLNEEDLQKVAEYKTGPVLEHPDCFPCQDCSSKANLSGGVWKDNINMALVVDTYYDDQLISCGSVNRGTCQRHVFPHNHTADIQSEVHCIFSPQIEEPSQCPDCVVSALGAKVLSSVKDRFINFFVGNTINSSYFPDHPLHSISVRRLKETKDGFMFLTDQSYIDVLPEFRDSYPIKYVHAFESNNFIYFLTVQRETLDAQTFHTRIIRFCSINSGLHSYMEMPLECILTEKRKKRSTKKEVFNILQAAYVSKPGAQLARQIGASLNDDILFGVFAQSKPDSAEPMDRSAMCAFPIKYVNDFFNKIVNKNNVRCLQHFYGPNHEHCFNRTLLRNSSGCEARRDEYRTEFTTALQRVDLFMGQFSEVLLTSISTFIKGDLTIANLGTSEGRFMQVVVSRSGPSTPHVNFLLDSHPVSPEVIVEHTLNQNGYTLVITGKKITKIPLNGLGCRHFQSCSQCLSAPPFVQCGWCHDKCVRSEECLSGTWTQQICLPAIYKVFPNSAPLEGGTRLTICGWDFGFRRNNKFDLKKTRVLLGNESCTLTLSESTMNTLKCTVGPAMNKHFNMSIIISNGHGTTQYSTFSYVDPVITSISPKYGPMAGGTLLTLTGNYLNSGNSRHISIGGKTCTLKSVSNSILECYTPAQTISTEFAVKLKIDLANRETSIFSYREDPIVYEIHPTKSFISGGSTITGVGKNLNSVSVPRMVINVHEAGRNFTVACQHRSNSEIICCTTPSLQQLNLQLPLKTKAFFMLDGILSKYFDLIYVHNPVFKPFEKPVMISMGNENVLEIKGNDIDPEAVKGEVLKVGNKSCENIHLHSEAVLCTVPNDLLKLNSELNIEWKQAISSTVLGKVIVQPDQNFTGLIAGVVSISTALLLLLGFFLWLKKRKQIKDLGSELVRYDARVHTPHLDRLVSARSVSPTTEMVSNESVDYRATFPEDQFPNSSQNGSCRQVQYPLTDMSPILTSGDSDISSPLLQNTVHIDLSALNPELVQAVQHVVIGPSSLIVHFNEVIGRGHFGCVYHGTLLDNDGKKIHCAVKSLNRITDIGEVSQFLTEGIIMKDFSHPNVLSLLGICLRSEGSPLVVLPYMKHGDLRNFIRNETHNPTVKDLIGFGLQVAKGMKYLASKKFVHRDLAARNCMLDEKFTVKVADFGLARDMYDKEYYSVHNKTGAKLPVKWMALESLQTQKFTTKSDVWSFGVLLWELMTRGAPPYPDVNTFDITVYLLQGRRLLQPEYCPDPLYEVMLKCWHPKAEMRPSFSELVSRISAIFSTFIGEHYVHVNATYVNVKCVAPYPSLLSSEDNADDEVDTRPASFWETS
Cyclin-dependent kinase 17, sequence (Q00537 whole entry): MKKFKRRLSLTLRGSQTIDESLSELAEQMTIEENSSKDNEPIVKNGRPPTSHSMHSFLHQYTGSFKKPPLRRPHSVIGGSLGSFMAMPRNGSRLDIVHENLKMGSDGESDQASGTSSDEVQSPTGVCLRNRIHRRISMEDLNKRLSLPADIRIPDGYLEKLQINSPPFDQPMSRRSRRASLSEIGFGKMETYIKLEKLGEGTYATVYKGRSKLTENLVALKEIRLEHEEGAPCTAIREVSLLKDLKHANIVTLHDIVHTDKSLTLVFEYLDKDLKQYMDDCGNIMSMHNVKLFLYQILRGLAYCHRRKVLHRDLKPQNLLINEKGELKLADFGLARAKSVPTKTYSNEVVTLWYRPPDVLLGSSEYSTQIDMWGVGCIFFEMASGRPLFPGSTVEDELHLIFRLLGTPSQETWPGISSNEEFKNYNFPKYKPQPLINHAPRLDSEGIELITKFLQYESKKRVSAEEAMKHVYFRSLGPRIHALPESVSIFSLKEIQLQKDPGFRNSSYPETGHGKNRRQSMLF
Ribosomal protein S6 kinase alpha-6, sequence (Q9UK32 whole entry): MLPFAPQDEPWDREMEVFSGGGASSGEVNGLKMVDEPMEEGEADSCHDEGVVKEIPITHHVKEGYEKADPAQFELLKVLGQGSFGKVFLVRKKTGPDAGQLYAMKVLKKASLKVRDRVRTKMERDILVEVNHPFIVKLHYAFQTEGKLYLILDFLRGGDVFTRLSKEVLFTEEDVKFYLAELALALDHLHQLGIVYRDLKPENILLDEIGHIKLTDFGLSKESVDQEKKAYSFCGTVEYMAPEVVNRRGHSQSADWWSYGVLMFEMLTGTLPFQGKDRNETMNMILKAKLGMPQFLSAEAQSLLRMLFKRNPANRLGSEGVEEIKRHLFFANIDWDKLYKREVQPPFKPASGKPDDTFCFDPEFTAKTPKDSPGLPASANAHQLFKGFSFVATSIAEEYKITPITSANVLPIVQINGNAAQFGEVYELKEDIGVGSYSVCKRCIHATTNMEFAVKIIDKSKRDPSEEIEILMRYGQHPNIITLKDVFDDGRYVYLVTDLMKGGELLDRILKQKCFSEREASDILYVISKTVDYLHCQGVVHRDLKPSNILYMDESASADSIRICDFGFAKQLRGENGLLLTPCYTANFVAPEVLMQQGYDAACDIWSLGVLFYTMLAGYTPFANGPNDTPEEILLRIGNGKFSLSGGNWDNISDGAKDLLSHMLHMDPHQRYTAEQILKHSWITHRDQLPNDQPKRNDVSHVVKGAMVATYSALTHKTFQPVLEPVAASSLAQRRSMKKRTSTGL
Maternal embryonic leucine zipper kinase, sequence (Q14680 whole entry): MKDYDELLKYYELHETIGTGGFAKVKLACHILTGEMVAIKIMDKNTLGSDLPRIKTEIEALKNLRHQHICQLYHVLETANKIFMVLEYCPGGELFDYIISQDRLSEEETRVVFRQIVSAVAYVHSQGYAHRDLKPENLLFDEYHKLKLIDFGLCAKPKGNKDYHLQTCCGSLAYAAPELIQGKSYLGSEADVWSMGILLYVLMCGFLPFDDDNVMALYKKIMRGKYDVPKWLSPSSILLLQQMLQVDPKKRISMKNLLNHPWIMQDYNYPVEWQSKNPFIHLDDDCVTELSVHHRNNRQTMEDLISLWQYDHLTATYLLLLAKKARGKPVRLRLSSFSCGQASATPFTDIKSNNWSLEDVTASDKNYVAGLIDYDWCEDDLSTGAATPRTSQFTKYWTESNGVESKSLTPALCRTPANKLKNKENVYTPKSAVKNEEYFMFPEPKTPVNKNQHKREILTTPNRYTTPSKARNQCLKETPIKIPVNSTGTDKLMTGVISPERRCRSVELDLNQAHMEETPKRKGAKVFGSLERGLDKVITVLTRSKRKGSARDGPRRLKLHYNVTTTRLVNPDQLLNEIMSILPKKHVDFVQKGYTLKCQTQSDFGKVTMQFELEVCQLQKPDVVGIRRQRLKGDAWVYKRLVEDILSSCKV
Adenosine kinase, sequence (P55263 whole entry): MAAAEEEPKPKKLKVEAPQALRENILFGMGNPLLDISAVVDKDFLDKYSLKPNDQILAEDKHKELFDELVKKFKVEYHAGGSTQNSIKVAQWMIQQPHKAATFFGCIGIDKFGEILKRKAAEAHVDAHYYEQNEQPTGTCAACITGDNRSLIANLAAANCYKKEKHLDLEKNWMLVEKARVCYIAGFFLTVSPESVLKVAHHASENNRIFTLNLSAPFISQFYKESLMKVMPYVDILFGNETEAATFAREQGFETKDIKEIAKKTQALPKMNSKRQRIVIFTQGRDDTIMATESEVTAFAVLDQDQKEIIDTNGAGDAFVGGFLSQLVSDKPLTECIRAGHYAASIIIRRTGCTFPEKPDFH
Serine/threonine-protein kinase 26, sequence (Q9P289 whole entry): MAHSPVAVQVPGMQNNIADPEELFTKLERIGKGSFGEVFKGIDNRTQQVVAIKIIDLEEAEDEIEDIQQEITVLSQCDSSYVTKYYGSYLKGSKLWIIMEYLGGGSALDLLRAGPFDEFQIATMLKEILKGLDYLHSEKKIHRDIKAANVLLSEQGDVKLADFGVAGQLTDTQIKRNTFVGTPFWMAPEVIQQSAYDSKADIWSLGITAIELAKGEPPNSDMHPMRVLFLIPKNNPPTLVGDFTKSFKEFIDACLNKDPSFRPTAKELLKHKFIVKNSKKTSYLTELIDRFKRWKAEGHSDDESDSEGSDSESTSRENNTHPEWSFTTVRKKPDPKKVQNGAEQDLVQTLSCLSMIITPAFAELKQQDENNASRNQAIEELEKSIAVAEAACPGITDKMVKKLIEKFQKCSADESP

Regarding `NC(=O)Nc1cc(-c2cccc(F)c2)sc1C(=O)N[C@H]1CCCNC1` [AZD-7762], the Kd in experiment [1] was > 30 µM (inactive); in experiment [2] it was > 30 µM (inactive); in [3] it was 0.035 µM (active); in experiment [4], 0.762 µM (active); in experiment [5] it was > 30 µM (inactive); in experiment [6] it was 4.53 µM (active). For the same compound, the dissociation constant (Kd) in experiment [7] is 0.109 µM (active); in experiment [8], > 30 µM (inactive); in experiment [9], > 30 µM (inactive); in [10], > 30 µM (inactive); in experiment [11] it was 1.09 µM (active); in experiment [12], 1.51 µM (active). The Kd in experiment [13], in experiment [14] and in experiment [15] was > 30 µM (inactive) throughout.

On to `O=C(Nc1cc(C(F)(F)F)cc(C(F)(F)F)c1)c1cc(Cl)ccc1O` [IMD-0354], for which the Kd in experiment [1], in [2], in experiment [16], in experiment [3], in [5] and in [6] was > 30 µM (inactive) throughout. Also, the Kd in experiment [7], in experiment [8], in experiment [9], in [10], in [11] and in [12] was > 30 µM (inactive) in each case. Further, the Kd in experiment [13], in experiment [17], in experiment [14] and in experiment [15] was > 30 µM (inactive) in each case.

For `CNC(=O)c1cccc2cc(Oc3ccnc4cc(OCC5(N)CC5)c(OC)cc34)ccc12` [LUCITANIB], the Kd in experiment [1], in experiment [2], in experiment [16], in experiment [3], in experiment [4] and in experiment [5] was > 30 µM (inactive) in each case. For the same compound, the Kd in [6], in experiment [7], in experiment [8], in experiment [9], in experiment [10] and in experiment [11] was > 30 µM (inactive) throughout. The Kd in experiment [12], in experiment [13], in experiment [17], in experiment [14] and in experiment [15] was > 30 µM (inactive) in each case.

Turning to `N#CC1(c2ccc(NC(=O)c3cccnc3NCc3ccncc3)cc2)CCCC1` [RIVOCERANIB], the Kd in experiment [1], in experiment [2], in experiment [16], in experiment [3], in experiment [4] and in experiment [5] was > 30 µM (inactive) throughout. Besides, the Kd in [6], in experiment [7], in experiment [8], in experiment [9], in [10] and in experiment [11] was > 30 µM (inactive) each time. For the same compound, the Kd in experiment [12], in experiment [13], in [17], in experiment [14] and in [15] was > 30 µM (inactive) each time.

In the case of `O=c1[nH]ccc2cc(OC3CCNCC3)ccc12` [SAR-407899 FREE BASE], the Kd in experiment [1], in experiment [2], in experiment [16], in [3], in experiment [4] and in experiment [5] was > 30 µM (inactive) each time. For the same compound, the Kd in experiment [6], in [7], in [8], in [9], in experiment [10] and in experiment [11] was > 30 µM (inactive) throughout. Besides, the Kd in experiment [12], in experiment [13], in experiment [17], in experiment [14] and in experiment [15] was > 30 µM (inactive) each time.
